{"source": "patent US20170251943A1", "about": "“Systems Level State Characteristics in Experimental Treatment of Disease” (priority 2014, published 2017)", "key": {"[1]": {"system": "medial forebrain bundle 6-OHDA hemilesioned rat", "assay": "Levodopa-induced dyskinesia, dyskinetic symptoms in 6-OHDA hemilesioned rat", "assay_type": "in vivo", "text": "To characterize the CNS effects of experimental treatment of symptoms in levodopa-induced dyskinesia, the most widely used model of this disease condition was employed—the medial forebrain bundle 6-OHDA hemilesioned rat. In this model, parkinsonism is induced by the injection of this neurotoxin resulting in extensive neurotoxic lesions of midbrain dopaminergic neurons projecting to the forebrain. By injecting the […] in only one of the hemispheres the other hemisphere can be used as an internal control in different recordings conditions/behavioral situations. Following a period of levodopa treatment, animals developed dyskinetic symptoms affecting the side of the body contralateral to the brain lesion (Halje et al., 2012). Thus, neuronal recordings obtained in the parkinsonian and dyskinetic condition can be compared to a healthy control condition. Rats were chronically implanted with 128 recording electrodes according to the methods described above and CNS activity patterns were recorded in a number of experiments performed in four adult female Sprague-Dawley rats."}, "[2]": {"system": "medial forebrain bundle 6-OHDA hemilesioned rat", "assay": "CNS state characterization (LFP PSDs / spike trains, cortico-basal ganglia-thalamic loop) in dyskinetic 6-OHDA hemilesioned rat", "assay_type": "in vivo", "protocol": "Power spectral densities (PSDs) are calculated with a multitaper method (Pesaran, 2008) (50%-overlapping 8-s windows, 7 tapers) implemented in Chronux 2.0 (Mitra and Bokil, 2007). To stabilize the variance and to emphasize narrowband oscillations over wideband signals, PSDs are normalized to the pink noise background according to Halje et al. (Halje et al., 2012), but with one important adaptation: Due to the complexity of the data it is not practical to manually pick frequency bands with pure pink noise in all structures and conditions to get unbiased estimates of the noise background. Instead the whole frequency axis is divided into 20 logarithmically spaced bands (1-1.3, 1.3-1.7, . . . , 151.3-200 Hz) and the median power of each band is used for the fitting of the pink noise power curve S(f)=A/f^B. The pink noise normalization allows us to describe deviations from the pink noise floor in terms of the unit dBpink. As a final step, an average spectrogram is calculated for each structure, based on the spectrograms for each individual local bipolar LFP time series.\nOffline spike sorting can be performed with commercially available software to obtain spike trains of individual neurons, for example Offline Sorter by Plexon Inc. Standard spike train statistics like average firing rate and coefficient of variation is then calculated and used as features in the state-space analysis.\nelements, where each element is a measured variable. Typically, there are a couple of thousand variables in such a state description and it is necessary to reduce the dimensionality before it is practical to make further state characterizations. […]\nTo characterize the CNS effects of experimental treatment of symptoms in levodopa-induced dyskinesia, the most widely used model of this disease condition was employed—the medial forebrain bundle 6-OHDA hemilesioned rat. […] Rats were chronically implanted with 128 recording electrodes according to the methods described above and CNS activity patterns were recorded in a number of experiments performed in four adult female Sprague-Dawley rats. […]"}, "rats [3]": {"system": "rats", "assay": "CNS state characterization (LFP PSDs, diencephalic/telencephalic structures) in pharmacological psychosis-like states", "assay_type": "in vivo, rat", "conditions": "Hippocampus, Nucleus Accumbens, Thalamus; pink noise normalized, FIG. 6", "procedure": "Power spectral densities (PSDs) are calculated with a multitaper method (Pesaran, 2008) (50%-overlapping 8-s windows, 7 tapers) implemented in Chronux 2.0 (Mitra and Bokil, 2007). To stabilize the variance and to emphasize narrowband oscillations over wideband signals, PSDs are normalized to the pink noise background according to Halje et al. (Halje et al., 2012), but with one important adaptation: Due to the complexity of the data it is not practical to manually pick frequency bands with pure pink noise in all structures and conditions to get unbiased estimates of the noise background. […] As a final step, an average spectrogram is calculated for each structure, based on the spectrograms for each individual local bipolar LFP time series. […]\nFor this purpose, a number of diencephalic and telencephalic structures were recorded in parallel including: hippocampus [corresponding to anterior hippocampus in humans], nucleus accumbens [core and shell], medial prefrontal cortex and anterior gyrus cinguli (adapted to rodent anatomy), the mediodorsal nucleus and the medial geniculate nucleus in thalamus."}, "rats [4]": {"system": "rats", "assay": "Behavioral changes in rats treated with psychosis-inducing drugs", "assay_type": "in vivo, rat", "conditions": "10-50 min after injection"}}}
{"smiles": "COc1ccccc1N1CCN(CCN(C(=O)C2CCCCC2)c2ccccn2)CC1", "note": "[WAY100635]", "values": [{"measurement": "reversal of the anti-dyskinetic effect of the 5-HT1A agonist 8-OH-DPAT", "setting": "[1]; given after 8-OH-DPAT in dyskinetic rat", "value": "fully reversed"}, {"measurement": "reversal of 8-OH-DPAT effect on CNS state (LFP power spectral densities)", "setting": "[2]; dyskinetic+8-OH-DPAT rat, LFP PSDs in eight structures, FIG. 4", "value": "reversed the effect of 8-OH-DPAT inducing a state that closely resembles the initial dyskinetic state"}, {"measurement": "reversal of 8-OH-DPAT effect on CNS state (relative firing rates of neurons)", "setting": "[2]; dyskinetic+8-OH-DPAT rat, firing rates in eight structures of lesioned hemisphere, FIG. 5", "value": "reversed the effect of 8-OH-DPAT to a state closely resembling the initial dyskinetic state"}]}
{"smiles": "CCN(CC)C(=O)[C@@H]1C=C2c3cccc4[nH]cc(c34)C[C@H]2N(C)C1", "note": "[LSD, lysergic acid diethylamide]", "values": [{"measurement": "LFP power spectra of the drug-induced psychosis-like state", "setting": "rats [3]", "value": "high-frequency narrow band oscillation in n. Accumbens"}]}
{"smiles": "CNC1(c2ccccc2Cl)CCCCC1=O", "note": "(stereo not shown) [Ketamine]", "values": [{"measurement": "behavioral change (locomotion)", "setting": "rats [4]", "value": "increased locomotion"}]}
{"smiles": "CCCN(CCC)C1CCc2cccc(O)c2C1", "note": "(stereo not shown) [8-OH-DPAT]", "values": [{"measurement": "effect on dyskinetic symptoms", "setting": "[1]; 1 mg/kg and 0.4 mg/kg i.p. at the time point of peak dyskinesia, two experiments", "value": "effectively suppress dyskinetic symptoms"}, {"measurement": "shift of CNS state in state space", "setting": "[2]; dyskinetic rat, state spaces from spike trains and LFP PSDs, FIGS. 4 and 5", "value": "primarily shifted the dyskinetic state back towards the parkinsonian state"}]}
